Measured values as given in patent US10597388B2, “Pyridazinone herbicides” (FMC CORPORATION, priority 2014, dated 2020).

Experiments:
Format in all cases: in vivo
[1] = test system: blackgrass (Alopecurus myosuroides); assay: Test A greenhouse herbicide test, postemergence; conditions: for Blackgrass plant response rating: 0 is no effect, 100 is complete control
Procedure, shortened: (§1)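 Plants grown in loam soil/sand blend pots were treated postemergence at 2 to 10 cm height, one- to two-leaf stage, with formulated test chemicals. After approximately 10 d in a greenhouse, injury was rated visually against untreated controls on a 0 to 100 scale (0 no effect, 100 complete control).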

[2] = test system: galium (catchweed bedstraw, Galium aparine); assay: Test A greenhouse herbicide test, postemergence
Procedure, shortened: as §1

[3] = test system: barnyardgrass (Echinochloa crus-galli); assay: Test B flooded paddy test; conditions: 250 g ai/ha, Flood; visual rating on scale of 0 to 100 where 0 is no effect and 100 is complete control; 13 to 15 d after treatment
Procedure, shortened: (§2)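 Plants at the 2-leaf stage were flooded to 3 cm above soil, and test compounds were applied directly into the paddy water, which was held at that depth throughout. After 13 to 15 d in a greenhouse, injury was rated visually against untreated controls on a 0–100 scale (0 no effect, 100 complete control).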

rice (Oryza sativa) = assay: Test B flooded paddy test; conditions: 250 g ai/ha, Flood; visual rating on scale of 0 to 100 where 0 is no effect and 100 is complete control; 13 to 15 d after treatment
Procedure, shortened: as §2

[4] = test system: ducksalad (Heteranthera limosa); assay: Test B flooded paddy test; conditions: 250 g ai/ha, Flood; visual rating on scale of 0 to 100 where 0 is no effect and 100 is complete control; 13 to 15 d after treatment
Procedure, shortened: as §2

[5] = test system: sedge, umbrella (small-flower umbrella sedge, Cyperus difformis); assay: Test B flooded paddy test; conditions: 250 g ai/ha, Flood; visual rating on scale of 0 to 100 where 0 is no effect and 100 is complete control; 13 to 15 d after treatment
Procedure, shortened: as §2

corn (Zea mays) = assay: Test A greenhouse herbicide test, pre- and postemergence; conditions: Postemergence
Procedure, shortened: (§3)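 Seeds sown in loam–sand blend got a preemergence directed soil spray of compound in non-phytotoxic solvent with surfactant. Postemergence treatment was given at 2–10 cm, one- to two-leaf stage. After ~10 d in greenhouse, injury was rated visually vs untreated controls, 0 (no effect) to 100 (complete control).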

[6] = test system: wheat (Triticum aestivum); assay: as above; conditions: Postemergence
Procedure, shortened: as §3

[7] = test system: foxtail, giant (giant foxtail, Setaria faberii); assay: as above
Procedure, shortened: as §3

[8] = test system: barnyardgrass (Echinochloa crus-galli); assay: as above
Procedure, shortened: as §3

[9] = test system: ragweed (common ragweed, Ambrosia elatior); assay: as above
Procedure, shortened: as §3

kochia (Kochia scoparia) = assay: as above
Procedure, shortened: as §3

[10] = test system: ryegrass, Italian (Italian ryegrass, Lolium multiflorum); assay: as above
Procedure, shortened: as §3

[11] = test system: pigweed (Amaranthus retroflexus); assay: as above
Procedure, shortened: as §3

[12] = 1000 g ai/ha, 0 to 100 scale, 0 is no effect, 100 is complete control
[13] = Postemergence, 1000 g ai/ha, 0 to 100 scale, 0 is no effect, 100 is complete control
[14] = Preemergence, 1000 g ai/ha, 0 to 100 scale, 0 no effect, 100 complete control
[15] = 125 g ai/ha, 0 to 100 scale, 0 no effect, 100 complete control
[16] = 500 g ai/ha, visual rating after approx. 10 d, 0 to 100 scale (0 no effect, 100 complete control)
[17] = Postemergence, 125 g ai/ha, 0 to 100 scale, 0 no effect, 100 complete control
[18] = Postemergence, 500 g ai/ha, visual rating after approx. 10 d, 0 to 100 scale (0 no effect, 100 complete control)
[19] = Preemergence, 125 g ai/ha, visual injury rating, 0 to 100 scale (0 no effect, 100 complete control), approx. 10 d
[20] = Preemergence, 500 g ai/ha, 0 to 100 scale where 0 is no effect and 100 is complete control
[21] = 125 g ai/ha, 0 to 100 scale where 0 is no effect and 100 is complete control
[22] = Postemergence, 125 g ai/ha, 0 to 100 scale where 0 is no effect and 100 is complete control
[23] = Preemergence, 125 g ai/ha, 0 to 100 scale where 0 is no effect and 100 is complete control

Compound: Cc1nn(C)c(=O)c(-c2cccc3ccccc23)c1OC(=O)C=Cc1ccccc1 [Compound 183]
- Blackgrass plant response rating ([1]; 1000 g ai/ha, 0 to 100 scale): 80
- Galium plant response rating [2, 12]: 90
- Plant response rating, Barnyardgrass [3]: 0
- Plant response rating, Rice (rice (Oryza sativa)): 0
- Plant response rating, Ducksalad [4]: 0
- Plant response rating, Sedge, Umbrella [5]: 0
- Corn plant response rating (corn (Zea mays); [12]): 10
- Wheat plant response rating [6, 12]: 0
- Foxtail, Giant plant response rating [7, 13]: 70
- Plant response rating, Foxtail, Giant [7, 14]: 60
- Barnyardgrass plant response rating [8, 13]: 40
- Plant response rating, Barnyardgrass [8, 14]: 40
- Ragweed plant response rating [9, 13]: 70
- Plant response rating, Ragweed [9, 14]: 80
- Kochia plant response rating (kochia (Kochia scoparia); [13]): 90
- Plant response rating, Kochia (kochia (Kochia scoparia); [14]): 70
- Ryegrass, Italian plant response rating [10, 13]: 100
- Plant response rating, Ryegrass, Italian [10, 14]: 90
- Pigweed plant response rating [11, 13]: 90
- Plant response rating, Pigweed [11, 14]: 90

Compound: Cc1nn(C)c(=O)c(-c2c(C)sc3ccccc23)c1OC(=O)N1CCOCC1 [Compound 170]
- Plant response rating, Blackgrass [1, 15]: 0
- Plant response rating, Blackgrass [1, 16]: 10
- Plant response rating, Galium [2, 15]: 40
- Plant response rating, Galium [2, 16]: 80
- Plant response rating, Barnyardgrass [3]: 0
- Plant response rating, Rice (rice (Oryza sativa)): 0
- Plant response rating, Ducksalad [4]: 0
- Plant response rating, Sedge, Umbrella [5]: 60
- Plant response rating, Corn (corn (Zea mays); [15]): 0
- Plant response rating, Corn (corn (Zea mays); [16]): 0
- Plant response rating, Wheat [6, 15]: 0
- Plant response rating, Wheat [6, 16]: 0
- Plant response rating, Foxtail, Giant [7, 17]: 0
- Plant response rating, Foxtail, Giant [7, 18]: 10
- Plant response rating, Foxtail, Giant [7, 19]: 0
- Plant response rating, Foxtail, Giant [7, 20]: 0
- Plant response rating, Barnyardgrass [8, 17]: 0
- Plant response rating, Barnyardgrass [8, 18]: 10
- Plant response rating, Barnyardgrass [8, 19]: 0
- Plant response rating, Barnyardgrass [8, 20]: 0
- Plant response rating, Ragweed [9, 17]: 40
- Plant response rating, Ragweed [9, 18]: 80
- Plant response rating, Ragweed [9, 19]: 0
- Plant response rating, Ragweed [9, 20]: 20
- Plant response rating, Kochia (kochia (Kochia scoparia); [17]): 0
- Plant response rating, Kochia (kochia (Kochia scoparia); [18]): 70
- Plant response rating, Kochia (kochia (Kochia scoparia); [19]): 0
- Plant response rating, Kochia (kochia (Kochia scoparia); [20]): 0
- Plant response rating, Ryegrass, Italian [10, 17]: 0
- Plant response rating, Ryegrass, Italian [10, 18]: 50
- Plant response rating, Ryegrass, Italian [10, 19]: 0
- Plant response rating, Ryegrass, Italian [10, 20]: 40
- Plant response rating, Pigweed [11, 17]: 70
- Plant response rating, Pigweed [11, 18]: 80
- Plant response rating, Pigweed [11, 19]: 30
- Plant response rating, Pigweed [11, 20]: 100

Compound: COC(=O)Oc1c(Cl)nn(C)c(=O)c1-c1c(C)sc2ccc(Cl)cc12 [Compound 101]
- Plant response rating, Blackgrass [1, 21]: 20
- Blackgrass plant response rating ([1]; 500 g ai/ha, 0 to 100 scale): 40
- Plant response rating, Galium [2, 21]: 70
- Plant response rating, Galium [2, 16]: 90
- Plant response rating, Barnyardgrass [3]: 0
- Plant response rating, Rice (rice (Oryza sativa)): 0
- Plant response rating, Ducksalad [4]: 0
- Plant response rating, Sedge, Umbrella [5]: 0
- Plant response rating, Corn (corn (Zea mays); [21]): 0
- Plant response rating, Corn (corn (Zea mays); [16]): 20
- Plant response rating, Wheat [6, 21]: 0
- Plant response rating, Wheat [6, 16]: 20
- Plant response rating, Foxtail, Giant [7, 22]: 30
- Plant response rating, Foxtail, Giant [7, 18]: 50
- Foxtail, Giant plant response rating [7, 23]: 30
- Plant response rating, Foxtail, Giant [7, 20]: 60
- Plant response rating, Barnyardgrass [8, 22]: 0
- Barnyardgrass plant response rating ([8]; Postemergence, 500 g ai/ha, 0 to 100 scale, 0 is no effect, 100 is complete control): 30
- Barnyardgrass plant response rating [8, 23]: 0
- Plant response rating, Barnyardgrass [8, 20]: 30
- Plant response rating, Ragweed [9, 22]: 60
- Plant response rating, Ragweed [9, 18]: 80
- Ragweed plant response rating [9, 23]: 40
- Plant response rating, Ragweed [9, 20]: 40
- Plant response rating, Kochia (kochia (Kochia scoparia); [22]): 20
- Plant response rating, Kochia (kochia (Kochia scoparia); [18]): 30
- Kochia plant response rating (kochia (Kochia scoparia); [23]): 0
- Plant response rating, Kochia (kochia (Kochia scoparia); [20]): 40
- Plant response rating, Ryegrass, Italian [10, 22]: 30
- Plant response rating, Ryegrass, Italian [10, 18]: 50
- Ryegrass, Italian plant response rating [10, 23]: 60
- Plant response rating, Ryegrass, Italian [10, 20]: 100
- Plant response rating, Pigweed [11, 22]: 30
- Plant response rating, Pigweed [11, 18]: 70
- Pigweed plant response rating [11, 23]: 90
- Plant response rating, Pigweed [11, 20]: 90
